{"source": "patent US20170119899A1", "about": "“COMPOSITIONS AND METHODS FOR TREATMENT OF PEROXISOMAL DISORDERS AND LEUKODYSTROPHIES” (The Johns Hopkins University, priority 2015, published 2017)", "key": {"Solubility and stability": {"experiment": "Solubility and stability", "type": "physicochemical"}, "[1]": {"tested_on": "primary fibroblasts from male patients with cerebral ALD or AMN", "experiment": "LysoPC C26/C22 ratio in ALD/AMN patient-derived fibroblasts", "type": "cell-based, human", "conditions": "100 μM free 4PBA", "description": "Primary fibroblasts from male patients with either cerebral adrenoleukodystrophy (ALD) or adrenomyeloneuropathy (AMN) phenotype were thawed and plated in wells to grow for 4 days. On the 4th day cells were treated with various doses of Dendrimer-4phenylbutyrate (D4PBA) or free 4PBA and maintained in the culture, the treatment was refreshed on Day 7. Cells were harvested for analysis on Day 11. The C26:0, C22:0, and C20:0 very long chain fatty acid fraction of lysophosphatidyl choline (LysoPC) was measured in the harvested cells and the Lyso PC C26/C22 fraction was then calculated as a measure of impaired peroxisomal beta-oxidation."}, "TNF-alpha": {"tested_on": "TNF-alpha", "experiment": "VLCFA-induced TNF-alpha in patient-derived macrophages treated with D4PBA", "type": "cell-based, human", "conditions": "300 micromolar; controls, cerebral ALD and AMN patients", "description": "In a further experiment, peripheral blood mononucleocytes were derived from a cerebral ALD patient, two AMN and one control subject differentiated in culture using same protocol as above for D-NAC therapy. On day 3, cells were treated with various doses of D4-PBA, and then again on day 5, and day 7. On day 7, macrophages were again stimulated with very long chain fatty acids (VLCFA) as in the D-NAC macrophage study mentioned above. Cells were then harvested at 6 h after stimulation."}, "[2]": {"tested_on": "cells from X-ALD patients and X-ALD knockout mice", "conditions": "cited from earlier work"}, "[3]": {"conditions": "three boys, 140 mg/kg/day i.v. then 70 mg/kg four times daily orally; cited from earlier work"}, "X-ALD mice": {"tested_on": "X-ALD mice", "conditions": "mouse, in vivo; cited from earlier work"}, "[4]": {"conditions": "mouse, in vivo; cited from earlier work"}, "[5]": {"conditions": "in vivo; cited from earlier work"}, "[6]": {"conditions": "in vivo; cited from earlier work", "remark": "listed apart in the source"}}, "data": [{"smiles": "CC(C)(Oc1ccc(CCNC(=O)c2ccc(Cl)cc2)cc1)C(=O)O", "note": "[Bezafibrate]", "values": [{"measurement": "Water solubility", "setting": "Solubility and stability", "result": "water insoluble"}]}, {"smiles": "O=C(O)CCCc1ccccc1", "note": "[Free 4PBA, 4-phenyl butyric acid]", "values": [{"measurement": "LysoPC C26/C22 ratio, free drug", "setting": "[1]", "result": "no effect"}, {"measurement": "VLCFA-induced TNF-alpha response, free drug", "setting": "TNF-alpha", "result": "reduced the VLCFA-induced TNF-alpha response"}, {"measurement": "Water solubility", "setting": "Solubility and stability", "result": "water insoluble"}, {"measurement": "Very-long-chain fatty acid levels and beta-oxidation", "setting": "[2]", "result": "decreased levels of and increased beta-oxidation of very-long-chain fatty acids"}]}, {"smiles": "CC(=O)N[C@@H](CS)C(=O)O", "note": "[NAC, N-acetyl-L-cysteine]", "values": [{"measurement": "MRI progression in advanced ccALD", "setting": "[3]", "result": "slowing of MRI progression and reversal of gadolinium-contrast enhancement on MRI"}]}, {"smiles": "Oc1ccc(C=Cc2cc(O)cc(O)c2)cc1", "note": "[Resveratrol]", "values": [{"measurement": "Redox homeostasis, mitochondrial respiration, axonal degeneration, locomotor disabilities", "setting": "X-ALD mice", "result": "normalize redox homeostasis, mitochondrial respiration, bioenergetic failure, axonal degeneration and associated locomotor disabilities in the X-ALD mice"}]}, {"smiles": "C[C@@H]1C[C@H]2[C@@H]3CCC4=CC(=O)C=C[C@]4(C)C3=CC[C@]2(C)[C@@]1(O)C(=O)CO", "note": "[VBP15]", "values": [{"measurement": "Muscular dystrophy", "setting": "[4]", "result": "improves muscular dystrophy without side effects"}]}, {"smiles": "Cc1cc(OCC(=O)O)cc(C)c1Cc1ccc(O)c(C(C)C)c1", "note": "[sobetirome]", "values": [{"measurement": "Serum lipids and cholesterol in animal models", "setting": "[5]", "result": "reduced serum lipids, decreased cholesterol levels"}, {"measurement": "Plasma LDL cholesterol and triglycerides in humans", "setting": "[6]", "result": "lowers plasma LDL cholesterol and reduces plasma triglycerides"}]}]}
